The text below walks through data of US5662929A, “Therapeutic liposomal formulation” (Universite de Montreal, priority 1994, dated 1997).

The nature of series [1]: Pulmonary retention / tobramycin levels after intratracheal administration in non-infected mice. The format is in vivo, BALB/c mice. The note with it: 200 ug intratracheal, HPLC. The procedure:
Using differential scan calorimetry, the temperatures of phase transition (Tc) were calculated for the tobramycin-liposomal formulations listed in Table 1. All these formulations were then tested in vitro to assess the antibiotic kinetics of liberation from the liposomes. […] These liposomal formulations were further tested in animal model of chronic pulmonary infection to examine their antibacterial efficacy.
Lungs and kidneys were removed aseptically, weighed, and then homogenized in cold sterile PBS (40% [wt/vol]) for 30 s with a Polytron homogenizer. Tobramycin levels in both homogenized tissues and sera were measured by HPLC. Groups of three mice were used for each time value.

Series [2] deals with Pseudomonas aeruginosa PA 508 (mucoid phenotype). The experiment in a line: Bactericidal effect in chronic pulmonary infection, rat (Table 3 experiment). Type of series: in vivo, P. aeruginosa in Sprague-Dawley rats. The method, then: Different liposomal formulations were prepared according to Example 1 and analyzed by differential scan colorimetry. Using differential scan calorimetry, the temperatures of phase transition (Tc) were calculated for the tobramycin-liposomal formulations listed in Table 1. All these formulations were then tested in vitro to assess the antibiotic kinetics of liberation from the liposomes. In addition, these formulations were tested in a non-infected mouse model as previously described (Omri et al. 1994, Antimicrob. Agents Chemother. 38:1090-1095) to assess the persistence of the liposomes in the lung. Only the DPPC/DMPG 10:1, 15:1 and DSPC. […] These liposomal formulations were further tested in animal model of chronic pulmonary infection to examine their antibacterial efficacy. […] Of note, the addition of cholesterol to the formulation described in Table 1 brought the Tc to a minimum value of 60° C. Such formulations were incompatible with modulation of gradual antibiotic liberation and suitable interactions with bacteria. Thus, in order to maintain the desired characteristic of the liposome formulation, a low rigidity of the liposomes seems required. This low rigidity can be achieved by maintaining a low temperature of phase transition (below the body temperature of the animal to which the formulation is to be administered) and avoiding the use of cholesterol in the formulation.
(§1) To evaluate the bactericidal efficacy of a liposomal aminoglycoside formulation produced according to the present invention, male, pathogen-free, Sprague-Dawley rats weighing 175 to 225 g (Charles River) were used. Chronic infection in lungs was established by intratracheal administration of 5×10^5 CFU of Pseudomonas aeruginosa PA 508 (mucoid phenotype) prepared in agar beads. It is to be pointed out that this rat model for chronic pulmonary infection is widely recognized as the most appropriate animal model for chronic pulmonary infections in human CF patients. After 3 days, three doses (600 ug) of free or liposome-encapsulated tobramycin were given intratracheally at intervals of 16 h. The lipid mixture were DPPC:DMPG at a molar ratio of 10:1 (formula no 1) and DPPC:DMPC at a molar ratio of 15:1 (formula no 2). Sixteen hours after the last treatment, the animals were sacrificed and the entire lungs were removed aseptically, weighed and homogenized as described previously for mice. Serial 10-fold dilutions of the homogenates in cold PBS were made and spread in triplicate on proteose peptone agar plates. Identification of P. aeruginosa was confirmed by specific cultures. CFU were counted after 24-h incubations at 37° C. under 5% CO^2. Counts were expressed in log CFU per pair of lungs. PBS and PBS-liposomes were used as controls.

The subject of another series is P. aeruginosa. The series is described as follows: Bactericidal effect in infected rat lung tissues, second experiment (Table 4). The format is in vivo, P. aeruginosa in Sprague-Dawley rats. The following applies: two doses of 240 ug.
Excerpt: as §1, with “After 3 days, three doses (600 ug) of free or liposome-encapsulated tobramycin were given intratracheally at intervals of 16 h.” left out, “controls. […]” for “controls.”

Consider `NC[C@H]1O[C@H](O[C@H]2[C@H](O)[C@@H](O[C@H]3O[C@H](CO)[C@@H](O)[C@H](N)[C@H]3O)[C@H](N)C[C@@H]2N)[C@H](N)C[C@@H]1O` [free tobramycin, tobramycin], for which the Conc in lungs in series [1] (0.25 h) is on record as 43 ug/pair of lungs; in series [1] (1 h), 11 ug/pair of lungs. Moreover, the Conc in kidneys in series [1] (1 h) is reported as 25 ug/pair of kidneys. Further, in series [2] (free antibiotic, see below), the bacteria enumerated is on record as 10^7 c.f.u. In series [2] (rat, compared with free antibiotic), the “antibacterial efficacy in chronic pulmonary infection model (in words)” value is reported as “no or little bactericidal activity”. The “log cfu/pair of lungs” value in series [2] (three doses (600 ug) intratracheally at 16 h intervals, 16 h after last treatment) was 7.10 log cfu/pair of lungs; in the series with P. aeruginosa, 6.03 log cfu/pair of lungs. Besides, the cfu/pair of lungs in series [2] (three doses (600 ug) intratracheally at 16 h intervals, 16 h after last treatment, cfu counts < 30 not statistically significant) was 1.25 × 10^7 cfu/pair of lungs; with P. aeruginosa, 1.07 × 10^6 cfu/pair of lungs.
